System: patients with advanced solid tumors
Assay: Phase 1 trial: adverse events (CTCAE), DLT and MTD
Assay type: in vivo, human
Method: The phase 1 trial was a two-part, multicenter, open-label, nonrandomized study to evaluate the safety and preliminary efficacy of HA121-28.
Safety, tolerability, and PK of HA121-28 was assessed in dose-escalation part. The single-patient accelerated titration was carried out at 25 mg and 50 mg; then, the dose escalation proceeded according to a “3 + 3” design in dose range of 100 to 800 mg. Escalation to a higher dose level was considered by the satisfactory review of safety results from the previous lower dose during the first cycle.
The dose-expansion part aims to further access the safety and efficacy of HA121-28 at the selected doses based on data from the dose-escalation part. The RP2D was determined by investigators in view of a thorough review of safety, PK, and efficacy results.
In phase 1 trial, during the dose-escalation part, patients first administered HA121-28 in a single ascending dose under the fasted state, then followed up for seven days. Then, patients received ascending doses of HA121-28 (q.d.) on a 21-day on and 7-day off treatment scheme for a 28-day cycle. For patients deemed beneficial from the treatment by investigators, treatment could remain until disease progression, or they discontinued from the study. In the dose-expansion part of phase 1, as well as phase 2, patients received HA121-28 (q.d.) at the selected doses on a 21-day on and 7-day off treatment scheme until disease progression, or they discontinued from the study.
Treatment-emergent adverse events (TEAEs) were documented during the entire study period. The predefined adverse event of special interest (AESI) was ≥ grade 3 prolonged QT interval. Tumor imaging was performed using contrast-enhanced computed tomography or magnetic resonance imaging at screening, Day 28 of the first cycle, then approximately every eight weeks till the end of the study for phase 1; in phase 2, imaging was scheduled at screening, and every eight weeks during the first 40 weeks, followed by every 12 weeks for the rest of the study period. RECIST 1.1 was used by the independent review committee or investigators for assessment of tumor response. After the original assessment, a repeated assessment was required around four weeks later to confirm a complete or partial response.
The primary endpoints of phase 1 were to investigate the MTD, dose-limiting toxicities, and the incidence and severity of TEAEs. Each TEAE was graded according to the Common Terminology Criteria for Adverse Events (CTCAE, version 5.0) and coded by Medical Dictionary for Regulatory Activities (MedDRA, version 21.0). The secondary endpoints included calculating PK parameters, assessing the ORR and DCR at the recommended dose by investigators as per RECIST 1.1. The exploratory endpoint was PFS.
If grade 2 or higher toxicity related to the study drug occurs in Groups 1 and 2 (as determined by the investigator), dose escalation will proceed using a 3+3 design starting from that dose level. If no DLT is observed at the 800 mg/d dose level after dose escalation, a meeting of investigators will be convened to decide whether to proceed with further dose escalation based on the available PK data, safety, and tolerability information.
5. Definition of DLT and MTD
The following events related to the study drug (including those that are definitely related, highly likely to be related, and possibly related):
(1) Grade 4 hematologic toxicity or grade 3 neutropenia accompanied by a fever of 38.5℃ or higher, or grade 3 thrombocytopenia accompanied by severe bleeding.
(2) Patients who discontinued the medication for more than 7 days due to unresolved toxicity reactions or who discontinued the medication more than twice due to toxicity […]
(3) In the context of supportive treatment, diarrhea of grade 2 lasting more than 7 days, or grade 3 diarrhea lasting more than 3 days.

## COc1cc2c(Nc3ccc(Br)cc3F)ncnc2cc1OCCCCN(C)C.Cl.Cl [HA121-28, N-(4-bromo-2-fluorophenyl)-7-(4-(dimethylamino)butoxy)-6-methoxy quinazolin-4-amine dihydrochloride]
Phase 1, 600 mg (N=64)
  Serious TEAE: Cardiac tamponade: 0 No. (%)
  Serious TEAE: Coronary artery atherosclerosis: 0 No. (%)
  Serious TEAE: Death: 0 No. (%)
  Serious TEAE: Diarrhea: 2 (3.1) No. (%)
  Serious TEAE: Drug eruption: 1 (1.6) No. (%)
  Serious TEAE: Dyspnea: 0 No. (%)
  Serious TEAE: Embolism: 0 No. (%)
  Serious TEAE: Erythema multiforme: 0 No. (%)
  Serious TEAE: Headache: 0 No. (%)
  Serious TEAE: Hemoptysis: 1 (1.6) No. (%)
  Serious TEAE: Hydronephrosis: 0 No. (%)
  Serious TEAE: Hypertension: 0 No. (%)
  Serious TEAE: Hypoalbuminemia: 1 (1.6) No. (%)
  Serious TEAE: Intestinal obstruction: 0 No. (%)
  Serious TEAE: Intra-abdominal fluid collection: 0 No. (%)
  Serious TEAE: Intracranial tumor hemorrhage: 0 No. (%)
  Serious TEAE: Liver injury: 1 (1.6) No. (%)
  Serious TEAE: Lung adenocarcinoma: 0 No. (%)
  Serious TEAE: Malignant neoplasm progression: 2 (3.1) No. (%)
  Serious TEAE: Multiple organ dysfunction syndrome: 0 No. (%)
  Serious TEAE: Nausea: 2 (3.1) No. (%)
  Serious TEAE: Nephrolithiasis: 0 No. (%)
  Serious TEAE: Platelet counts decreased: 1 (1.6) No. (%)
  Serious TEAE: Pleural effusion: 0 No. (%)
  Serious TEAE: Pneumonia: 0 No. (%)
  Serious TEAE: Pneumonitis: 0 No. (%)
  Serious TEAE: Prolonged QT interval: 1 (1.6) No. (%)
  Serious TEAE: Pulmonary embolism: 0 No. (%)
  Serious TEAE: Pyrexia: 0 No. (%)
  Serious TEAE: Rash: 3 (4.7) No. (%)
  Serious TEAE: Rectal hemorrhage: 0 No. (%)
  Serious TEAE: Respiratory failure: 0 No. (%)
  Serious TEAE: Seizure: 0 No. (%)
  Serious TEAE: Septic shock: 0 No. (%)
  Serious TEAE: Sudden cardiac arrest: 1 (1.6) No. (%)
  Serious TEAE: Sudden death: 1 (1.6) No. (%)
  Serious TEAE: Upper respiratory tract infection: 1 (1.6) No. (%)
  Serious TEAE: Ventricular tachycardia: 1 (1.6) No. (%)
  Serious TEAE: Vomiting: 2 (3.1) No. (%)
  Serious TEAE: Weight loss: 2 (3.1) No. (%)
  Serious TRAE: ALT increased: 1 (1.6) No. (%)
  Serious TRAE: AST increased: 1 (1.6) No. (%)
  Serious TRAE: Abdominal Pain: 0 No. (%)
  Serious TRAE: Abdominal distension: 0 No. (%)
  Serious TRAE: Acute cholecystitis: 0 No. (%)
  Serious TRAE: Acute pancreatitis: 0 No. (%)
  Serious TRAE: Anal abscess: 1 (1.6) No. (%)
  Serious TRAE: Any: 13 (20.3) No. (%)
  Serious TRAE: Aortic intramural hematoma: 0 No. (%)
  Serious TRAE: Arrhythmia: 0 No. (%)
  Serious TRAE: Blood bilirubin increased: 1 (1.6) No. (%)
  Serious TRAE: Blood creatinine increased: 1 (1.6) No. (%)
  Serious TRAE: COVID-19: 0 No. (%)
  Serious TRAE: Cardiac tamponade: 0 No. (%)
  Serious TRAE: Coronary artery atherosclerosis: 0 No. (%)
  Serious TRAE: Death: 0 No. (%)
  Serious TRAE: Diarrhea: 2 (3.1) No. (%)
  Serious TRAE: Drug eruption: 1 (1.6) No. (%)
  Serious TRAE: Dyspnea: 0 No. (%)
  Serious TRAE: Embolism: 0 No. (%)
  Serious TRAE: Erythema multiforme: 0 No. (%)
  Serious TRAE: Headache: 0 No. (%)
  Serious TRAE: Hemoptysis: 1 (1.6) No. (%)
  Serious TRAE: Hydronephrosis: 0 No. (%)
  Serious TRAE: Hypertension: 0 No. (%)
  Serious TRAE: Hypoalbuminemia: 1 (1.6) No. (%)
  Serious TRAE: Intestinal obstruction: 0 No. (%)
  Serious TRAE: Intra-abdominal fluid collection: 0 No. (%)
  Serious TRAE: Intracranial tumor hemorrhage: 0 No. (%)
  Serious TRAE: Liver injury: 0 No. (%)
  Serious TRAE: Lung adenocarcinoma: 0 No. (%)
  Serious TRAE: Malignant neoplasm progression: 1 (1.6) No. (%)
  Serious TRAE: Multiple organ dysfunction syndrome: 0 No. (%)
  Serious TRAE: Nausea: 2 (3.1) No. (%)
  Serious TRAE: Nephrolithiasis: 0 No. (%)
  Serious TRAE: Platelet counts decreased: 0 No. (%)
  Serious TRAE: Pleural effusion: 0 No. (%)
  Serious TRAE: Pneumonia: 0 No. (%)
  Serious TRAE: Pneumonitis: 0 No. (%)
  Serious TRAE: Prolonged QT interval: 1 (1.6) No. (%)
  Serious TRAE: Pulmonary embolism: 0 No. (%)
  Serious TRAE: Pyrexia: 0 No. (%)
  Serious TRAE: Rash: 3 (4.7) No. (%)
  Serious TRAE: Rectal hemorrhage: 0 No. (%)
  Serious TRAE: Respiratory failure: 0 No. (%)
  Serious TRAE: Seizure: 0 No. (%)
  Serious TRAE: Septic shock: 0 No. (%)
  Serious TRAE: Sudden cardiac arrest: 1 (1.6) No. (%)
  Serious TRAE: Sudden death: 1 (1.6) No. (%)
  Serious TRAE: Upper respiratory tract infection: 0 No. (%)
  Serious TRAE: Ventricular tachycardia: 1 (1.6) No. (%)
  Serious TRAE: Vomiting: 2 (3.1) No. (%)
  Serious TRAE: Weight loss: 2 (3.1) No. (%)
Phase 1, 800 mg (N=3)
  Serious TEAE: ALT increased: 0 No. (%)
  Serious TEAE: AST increased: 0 No. (%)
  Serious TEAE: Abdominal Pain: 0 No. (%)
  Serious TEAE: Abdominal distension: 0 No. (%)
  Serious TEAE: Acute cholecystitis: 0 No. (%)
  Serious TEAE: Acute pancreatitis: 0 No. (%)
  Serious TEAE: Anal abscess: 0 No. (%)
  Serious TEAE: Any: 1 (33.3) No. (%)
  Serious TEAE: Aortic intramural hematoma: 0 No. (%)
  Serious TEAE: Arrhythmia: 0 No. (%)
  Serious TEAE: Blood bilirubin increased: 0 No. (%)
  Serious TEAE: Blood creatinine increased: 0 No. (%)
  Serious TEAE: COVID-19: 0 No. (%)
  Serious TEAE: Cardiac tamponade: 0 No. (%)
  Serious TEAE: Coronary artery atherosclerosis: 0 No. (%)
  Serious TEAE: Death: 0 No. (%)
  Serious TEAE: Diarrhea: 0 No. (%)
  Serious TEAE: Drug eruption: 0 No. (%)
  Serious TEAE: Dyspnea: 0 No. (%)
  Serious TEAE: Embolism: 0 No. (%)
  Serious TEAE: Erythema multiforme: 0 No. (%)

Reference: paper PMC11868595, “Safety, pharmacokinetics and efficacy of HA121-28 in patients with advanced solid tumors and RET fusion-positive non-small-cell lung cancer: a multicenter, open-label, single-arm phase 1/2 trial” (Signal Transduction and Targeted Therapy, 2025)
